Measurements taken from PubChem BioAssay AID328 (DTP/NCI, 2004).
Values joined by “and” are separate entries in the source; they are usually repeats but may differ in a detail not shown here. Equal values may be shown once. Inconclusive results and toxic doses are left out.

Test system: BDF1 mice, P388 leukemia ip, median survival T/C
Test: NCI In Vivo Anticancer Drug Screen. Data for tumor model P388 Leukemia (intraperitoneal) in B6D2F1 (BDF1) mice
Conditions: endpoint: median survival time, higher = longer survival
Method in brief: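 Transplantable tumour in mice; compound vs vehicle dosing; survival scored; ratio of treated to control reported.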

[1] = dose: 50.0 mg/kg/injection, schedule: Q01DX009 (ip), vehicle: saline with Tween-80
[2] = dose: 200.0 mg/kg/injection, schedule: Q01DX009 (ip), vehicle: saline with Tween-80
[3] = dose: 100.0 mg/kg/injection, schedule: Q04DX003 (ip), vehicle: saline sonified
[4] = dose: 200.0 mg/kg/injection, schedule: Q04DX003 (ip), vehicle: saline sonified
[5] = dose: 100.0 mg/kg/injection, schedule: Q01DX009 (ip), vehicle: saline with Tween-80

With `NCCCCC1NC(=O)C(CCCCN)NC1=O` (stereo unspecified) the T/C (dose: 50.0 mg/kg/injection, schedule: Q01DX005 (ip), vehicle: saline) was 105 % of control, the T/C (dose: 100.0 mg/kg/injection, schedule: Q01DX005 (ip), vehicle: saline) was 105 % of control and the T/C (dose: 200.0 mg/kg/injection, schedule: Q01DX005 (ip), vehicle: saline) was 95 % of control.
`COc1cc2ccc3c(c2cc1OC)CN1CCc2cc4c(cc2C1C3)OCO4` (stereo unspecified) was tested, and the T/C (dose: 44.0 mg/kg/injection, schedule: Q01DX009 (ip), vehicle: saline with Tween-80) was 115 % of control, the T/C [1] was 120 % of control and the T/C (dose: 100.0 mg/kg/injection, schedule: Q04DX003 (ip), vehicle: saline) was 118 % of control. The T/C [2] was 112 % of control, the T/C (dose: 200.0 mg/kg/injection, schedule: Q04DX003 (ip), vehicle: saline) was 100 % of control and the T/C (dose: 400.0 mg/kg/injection, schedule: Q04DX003 (ip), vehicle: saline) was 100 % of control.
In the case of `Cc1cc(Cl)c2ccccc2c1N`, the T/C (dose: 44.0 mg/kg/injection, schedule: Q01DX009 (ip), vehicle: other) is reported as 100 % of control, the T/C (dose: 66.0 mg/kg/injection, schedule: Q01DX009 (ip), vehicle: other) is reported as 110 % of control and the T/C (dose: 100.0 mg/kg/injection, schedule: Q01DX009 (ip), vehicle: other) is reported as 115 % of control. The T/C (dose: 150.0 mg/kg/injection, schedule: Q01DX009 (ip), vehicle: other) was 110 % of control.
`C=C(C)C12OC3(c4ccccc4)OC1C1C4OC4(CO)C(O)C4(O)C(=O)C(C)=CC4C1(O3)C(C)C2OC(=O)c1ccccc1` (stereo unspecified) was tested, and the T/C (dose: 6.3 micrograms/kg/injection, schedule: Q01DX009 (ip), vehicle: saline + alcohol) was 106 % of control, the T/C (dose: 12.5 micrograms/kg/injection, schedule: Q01DX009 (ip), vehicle: saline + alcohol) was 108 % of control and the T/C (dose: 200.0 micrograms/kg/injection, schedule: Q01DX009 (ip), vehicle: saline + alcohol) was 150 % of control.
`CCN(CC)c1ccc(/C=C2/C=Cc3ccccc32)cc1` was tested, and the T/C [3] was 95 % of control, the T/C [4] was 100 % of control and the T/C (dose: 400.0 mg/kg/injection, schedule: Q04DX003 (ip), vehicle: saline sonified) was 100 % of control.
With `CCOC(=O)C(C(C)=O)C(C)C` (stereo unspecified) the T/C (dose: 100.0 mg/kg/injection, schedule: Q01DX005 (ip), vehicle: other) was 112 % of control, the T/C (dose: 200.0 mg/kg/injection, schedule: Q01DX005 (ip), vehicle: other) was 117 % of control and the T/C (dose: 400.0 mg/kg/injection, schedule: Q01DX005 (ip), vehicle: other) was 109 % of control.
With `O=C(O)c1ccccc1C(=O)Nc1ccccc1C(F)(F)F` the T/C [1] was 94 % of control, the T/C [5] was 89 % of control and the T/C [2] was 121 % of control.
In the case of `O=C1CC2C3Nc4ccccc4C3CCN2C2=C1CC(OC(=O)c1ccccc1)CC2` (stereo unspecified), the T/C [1] is reported as 104 % of control, the T/C [5] is reported as 104 % of control and the T/C [2] is reported as 86 % of control.
With `NC(N)=N/N=C/C(Cl)Cl` the T/C (dose: 25.0 mg/kg/injection, schedule: Q01DX009 (ip), vehicle: saline) was 95 % of control and 100 % of control, the T/C (dose: 50.0 mg/kg/injection, schedule: Q01DX009 (ip), vehicle: saline) was 104 % of control and the T/C (dose: 100.0 mg/kg/injection, schedule: Q01DX009 (ip), vehicle: saline) was 100 % of control and 109 % of control.
In the case of `CCOC(=O)c1ccc(NC(=O)CCl)cc1`, the T/C (dose: 6.25 mg/kg/injection, schedule: Q01DX010 (ip), vehicle: saline) is reported as 104 % of control, the T/C (dose: 12.5 mg/kg/injection, schedule: Q01DX010 (ip), vehicle: saline) is reported as 100 % of control and the T/C (dose: 25.0 mg/kg/injection, schedule: Q01DX010 (ip), vehicle: saline) is reported as 100 % of control. For the same compound, the T/C (dose: 50.0 mg/kg/injection, schedule: Q01DX010 (ip), vehicle: saline) was 100 % of control.
In the case of `CCCCCC(C1=NC(C)(C)CC(C)O1)c1ccccc1` (stereo unspecified), the T/C (dose: 50.0 mg/kg/injection, schedule: Q04DX003 (ip), vehicle: saline sonified) is reported as 100 % of control, the T/C [3] is reported as 100 % of control and the T/C [4] is reported as 100 % of control.
For `COc1ccc(OC)c(/C=C/C(=O)NCC(O)CO)c1` (stereo unspecified), the T/C [1] was 95 % of control and the T/C [5] was 100 % of control.
For `NN=C(c1ccccc1)c1ccccc1`, the T/C (dose: 20.93 mg/kg/injection, schedule: Q01DX009 (ip), vehicle: Klucel (hydroxypropylcellulose) (HPC)) was 86 % of control, the T/C (dose: 31.25 mg/kg/injection, schedule: Q04DX003 (ip), vehicle: Klucel (hydroxypropylcellulose) (HPC)) was 90 % of control and 104 % of control and the T/C (dose: 41.87 mg/kg/injection, schedule: Q01DX009 (ip), vehicle: Klucel (hydroxypropylcellulose) (HPC)) was 95 % of control. For the same compound, the T/C (dose: 62.5 mg/kg/injection, schedule: Q04DX003 (ip), vehicle: Klucel (hydroxypropylcellulose) (HPC)) was 90 % of control, the T/C (dose: 125.0 mg/kg/injection, schedule: Q04DX003 (ip), vehicle: Klucel (hydroxypropylcellulose) (HPC)) was 90 % of control and the T/C (dose: 190.0 mg/kg/injection, schedule: Q04DX003 (ip), vehicle: Klucel (hydroxypropylcellulose) (HPC)) was 86 % of control.
